This assay has as its target T1, Androgen Receptor (AR) (Homo sapiens, UniProt P10275).
T1 sequence (P10275 1-920): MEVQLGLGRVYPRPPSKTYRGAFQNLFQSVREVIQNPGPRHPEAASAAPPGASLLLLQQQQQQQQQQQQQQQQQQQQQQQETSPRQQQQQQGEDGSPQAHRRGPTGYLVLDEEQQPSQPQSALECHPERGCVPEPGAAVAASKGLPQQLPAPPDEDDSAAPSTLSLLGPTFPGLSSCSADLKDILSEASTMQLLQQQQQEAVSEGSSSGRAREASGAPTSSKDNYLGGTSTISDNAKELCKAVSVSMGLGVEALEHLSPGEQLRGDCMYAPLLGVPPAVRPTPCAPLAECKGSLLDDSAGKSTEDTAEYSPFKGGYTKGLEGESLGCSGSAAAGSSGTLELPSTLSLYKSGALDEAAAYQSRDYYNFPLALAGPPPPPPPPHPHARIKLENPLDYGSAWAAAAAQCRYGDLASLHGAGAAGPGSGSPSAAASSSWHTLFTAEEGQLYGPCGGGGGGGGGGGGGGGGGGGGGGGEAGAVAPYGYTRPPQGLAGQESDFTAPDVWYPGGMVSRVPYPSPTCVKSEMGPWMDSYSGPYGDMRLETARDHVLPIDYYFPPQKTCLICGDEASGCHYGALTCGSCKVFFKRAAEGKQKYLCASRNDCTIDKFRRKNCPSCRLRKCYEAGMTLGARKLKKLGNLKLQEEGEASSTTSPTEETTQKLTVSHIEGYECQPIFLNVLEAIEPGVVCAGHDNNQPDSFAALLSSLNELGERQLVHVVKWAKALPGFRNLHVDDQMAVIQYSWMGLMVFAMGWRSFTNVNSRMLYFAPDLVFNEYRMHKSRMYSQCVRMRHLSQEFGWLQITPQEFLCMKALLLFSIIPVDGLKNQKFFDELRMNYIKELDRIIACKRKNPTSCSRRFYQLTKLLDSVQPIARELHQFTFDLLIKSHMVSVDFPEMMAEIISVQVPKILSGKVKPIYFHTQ
Put plainly: Measurement of AR protein degradation in VCaP cells by Western blotting. To be noted: VCaP, 20 h, read-out: AR degradation in VCaP cells (%). More on the design: endogenous in cells; host or cells: VCaP. It is filed as cell-based. The procedure:
The amount of AR protein present in LNCaP or VCaP cells was measured after treating them with the synthesized compound. The amount of AR protein was measured using Western blotting. The protocol for the experiments using LNCaP or VCaP cells was as follows.
[Culture] LNCaP cells were resuspended in RPMI1640 medium + HEPES (Hyclone, SH30255.01), 10% FBS (Hyclone, SV30207.02), and 1% Penicillin-streptomycin (Welgene, LS 202-02). 3 x 10^5 cells/mL were seeded in 12-well plates (1 mL per well) and cultured for 3 days. VCaP cells were resuspended in IMDM MEDIUM (Hyclone, SH30228.01), 20% FBS (Hyclone, SV30207.02), and 1% Penicillin-streptomycin (Welgene, LS 202-02), seeded at 9 x 10^5/mL in 1 mL per 12-well plate, and cultured for 3 days.
[Compound Treatment] 10 µL of 100x stock (e.g., 0.1, 1, 10 µM) compound solution at the final compound treatment concentration (e.g., 0.001, 0.01, 0.1 µM) was added to each well in 1 mL media, and cells were harvested after 20 hours. For DC50 measurement, 100x stock (0.01, 0.1, 1, 10, 100, 1000 µM) compound solutions at the final compound treatment concentration (0.0001, 0.001, 0.01, 0.1, 1, 10 µM) were used.
[Cell lysis] The cell pellet was suspended using 1% SDS lysis buffer (50 mM Tris, 1 mM EDTA, 1% SDS, pH 8.0, 0.5 mM PMSF, 1x Protease/Phosphatase inhibitor Cocktail (Cell Signaling Technology, 5872S)), and sonication (70% AMP, 10 cycles (30 sec ON/59 sec OFF)) was performed. After centrifugation at 4°C and 20,000 g for 20 minutes, the cell lysate was obtained and transferred to a new tube.
[Protein Quantification] A BCA protein assay (SMART™ BCA Protein Assay Kit, iNtRON Biotechnology, 21071) was performed using a 96-well microplate. 5 µL of cell lysate and 5 µL of 1% SDS lysis buffer were added to each well of the 96-well plate, followed by an additional 200 µL of BCA reagent (Reagent A: Reagent B = 50:1). The wells were incubated at 37°C for 30 minutes and cooled to room temperature for 10 minutes. After shaking for 10 seconds, the absorbance was measured at a wavelength of 562 nm. The unknown protein concentration was determined using a BSA standard curve (0, 0.125, 0.25, 0.5, 1, 2 mg/mL). Western blotting samples were prepared by mixing cell lysate, 1% SDS lysis buffer, 4x NuPAGE™ LDS Sample buffer (Invitrogen, NP0008), and 10X NuPAGE™ Sample Reducing Agent (Invitrogen, NP0009) and boiling at 70°C for 10 minutes.
[Electrophoresis] 10 µg of protein sample was loaded into each well of a NuPAGE™ 4 to 12%, Bis-Tris, 1.0 mm Mini Protein Gel, 15-well, 17-well, or 26-well (Invitrogen, NP0323BOX, NP0329BOX, or WG1403BOX) and electrophoresed for 40 minutes using NuPAGE™MES SDS Running Buffer (Invitrogen, NP0002) at 200 V (constant V).
[Transfer] Transfer was performed for 15 or 18 minutes using the electrophoresed gel and the Trans-Blot® Turbo™ Transfer Starter System (Bio-RAD, #17001918, Mini Nitrocellulose) at 1.3 A (constant A) and 25 V (limit V). To confirm protein transfer, 15 mL of Ponceau S solution (Sigma, P7170-1L) was used to stain for 1 minute, and then washed to check the degree of transfer.
[Blocking] The membrane for AR and GAPDH detection was blocked with 5% skim milk/0.2% TBST (Skim milk: BD, 232100/ 20X TBS: Biosesang, TR2008-100-00/ 10% Tween 20 Solution: Bio-RAD, #161-0781) for 45 minutes.
[Antibodies and Detection] Primary AR antibody (Androgen Receptor: CST, 5153S) was mixed with 5% skim milk/0.2% TBST at a ratio of 1:1,000 and reacted at room temperature for 3 hours or at 4°C overnight. Primary GAPDH antibody (CST, 2118S) was mixed with 5% skim milk/0.2% TBST at a ratio of 1:2,000 and reacted at room temperature for 3 hours or at 4°C overnight. Afterwards, TBST (0.2% Tween 20) was used for washing three times every 5 minutes. Secondary antibody to AR antibody, Anti-rabbit IgG, HRP-linked Antibody (CST, 7074S), was mixed with 5% skim milk/0.2% TBST at a ratio of 1:5,000 and reacted at room temperature for 45 minutes. […]

`N#Cc1ccc(N2CCC(C(=O)Nc3ccc(OC4CCN(CC5CCN(c6ccc(NC7CCC(=O)NC7=O)cc6F)CC5)CC4)cn3)CC2)cc1C(F)(F)F` (stereo not shown) [Example 1, 1-(4-cyano-3-(trifluoromethyl)phenyl)-N-(5-((1-((1-(4-((2,6-dioxopiperidin-3-yl)amino)-2-fluorophenyl)piperidin-4-yl)methyl)piperidin-4-yl)oxy)pyridin-2-yl)piperidine-4-carboxamide]: the Dmax at 0.01 µM was found to be 89% and the Dmax at 0.1 µM is 99%.

In the case of `N#Cc1ccc(N2CCC(C(=O)Nc3ccc(OC4CCN(CC5CCN(c6ccc(NC7CCC(=O)NC7=O)cc6Cl)CC5)CC4)cn3)CC2)cc1C(F)(F)F` (stereo not shown) [Example 17, N-(5-((1-((1-(2-chloro-4-((2,6-dioxopiperidin-3-yl)amino)phenyl)piperidin-4-yl)methyl)piperidin-4-yl)oxy)pyridin-2-yl)-1-(4-cyano-3-(trifluoromethyl)phenyl)piperidine-4-carboxamide], the Dmax at 0.01 µM worked out at 75% and the Dmax at 0.1 µM was 97%.
